Measured values taken from patent US10562912B2 (C&C Research Laboratories, priority 2013, dated 2020).

What was measured:
Type in all cases: cell-based
[1] = test system: LNCaP; assay: Cell growth inhibition assay, prostate cancer cell line LNCaP (medium with 10 ng/mL IL-6); conditions: Homo sapiens, medium supplemented with 10 ng/mL of IL-6, 10,000 cells/well
[2] = test system: AGS; assay: Cell growth inhibition assay, stomach cancer cell line AGS; conditions: Homo sapiens; AGS stomach cancer cell line, 3,000 cells/well
[3] = target: T1, STAT3 (Homo sapiens, UniProt P40763); assay: STAT3 reporter gene assay (luciferase), LNCaP stable cell line (pSTAT3-TA-luc), IL-6 stimulation
T1 construct: plasmid pSTAT3-TA-luc), which contains a stably operating STAT3 promoter; endogenous in cells
T1 sequence (P40763 whole entry): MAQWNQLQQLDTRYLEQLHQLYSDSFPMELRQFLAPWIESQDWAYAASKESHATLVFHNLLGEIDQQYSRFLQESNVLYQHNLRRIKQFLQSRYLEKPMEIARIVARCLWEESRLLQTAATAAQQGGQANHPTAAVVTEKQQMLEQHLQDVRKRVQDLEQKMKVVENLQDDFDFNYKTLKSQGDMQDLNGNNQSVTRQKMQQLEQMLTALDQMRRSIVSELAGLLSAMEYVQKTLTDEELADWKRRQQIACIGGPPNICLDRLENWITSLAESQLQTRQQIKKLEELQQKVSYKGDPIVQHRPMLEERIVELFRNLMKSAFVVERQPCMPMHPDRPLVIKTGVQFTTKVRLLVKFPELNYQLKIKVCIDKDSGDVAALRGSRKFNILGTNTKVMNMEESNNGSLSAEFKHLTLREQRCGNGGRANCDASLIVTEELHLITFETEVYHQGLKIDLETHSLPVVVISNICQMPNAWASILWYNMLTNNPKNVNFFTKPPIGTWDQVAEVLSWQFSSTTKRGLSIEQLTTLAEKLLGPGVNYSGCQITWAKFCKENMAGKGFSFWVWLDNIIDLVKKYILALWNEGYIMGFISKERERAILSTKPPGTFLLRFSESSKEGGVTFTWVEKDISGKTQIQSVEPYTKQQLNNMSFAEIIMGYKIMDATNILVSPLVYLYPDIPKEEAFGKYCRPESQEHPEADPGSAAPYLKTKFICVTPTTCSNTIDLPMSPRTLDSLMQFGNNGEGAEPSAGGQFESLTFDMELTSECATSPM
Summary of the method: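 LNCaP cells stably carrying pSTAT3-TA-luc, in RPMI1640 with 3% DCC-FBS, were treated with compound and then stimulated with 10 ng/mL IL-6 for 24–48 h at 37 °C. Luciferase activity was measured in lysates. A parallel plate measured viability by CellTiter-Glo, with stimulated 0.1% DMSO wells as the positive control.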

| Compound | IC50 [1] [µM] | IC50 [2] [µM] | IC50 [3] [µM] |
| --- | --- | --- | --- |
| CS(=O)(=O)Nc1ccc2cc(C(=O)Nc3cccc(-c4cnc(Cl)cc4C(F)(F)F)c3)[nH]c2c1 [Example 294, N-(3-(6-chloro-4-(trifluoromethyl)pyridin-3-yl)phenyl)-6-(methylsulfonamido)-1H-indole-2-carboxamide] | 3.5 | 16.1 | 2.6 |
| COc1ccc(-c2cccc(NC(=O)c3cc4ccc([N+](=O)[O-])cc4[nH]3)c2)c(F)c1 [Example 295, N-(2′-fluoro-4′-methoxy-[1,1′-biphenyl]-3-yl)-6-nitro-1H-indole-2-carboxamide] | > 10 | > 50 | > 10 |
| COc1ccc(-c2cccc(NC(=O)c3cc4ccc(NS(C)(=O)=O)cc4n3C(=O)OC(C)(C)C)c2)c(F)c1 [Example 296, tert-butyl 2-((2′-fluoro-4′-methoxy-[1,1′-biphenyl]-3-yl)carbamoyl)-6-(methylsulfonamido)-1H-indole-1-carboxylate] | > 10 | > 50 | > 10 |
| COc1ccc(F)c(-c2ccnc(NC(=O)c3cc4ccc([N+](=O)[O-])cc4[nH]3)c2)c1 [Example 297, N-(4-(2-fluoro-5-methoxyphenyl)pyridin-2-yl)-6-nitro-1H-indole-2-carboxamide] | 8.6 | 21.6 | > 10 |
| COC(=O)c1ccc(Cl)c(-c2cccc(NC(=O)c3cc4ccc([N+](=O)[O-])cc4[nH]3)c2)c1 [Example 298, methyl 6-chloro-3′-(6-nitro-1H-indole-2-carboxamido)-[1,1′-biphenyl]-3-carboxylate] | > 10 | 31.7 | > 10 |
| COC(=O)c1ccc(Cl)c(-c2cccc(NC(=O)c3cc4ccc(NS(C)(=O)=O)cc4[nH]3)c2)c1 [Example 299, methyl 6-chloro-3′-(6-(methylsulfonamido)-1H-indole-2-carboxamido)-[1,1′-biphenyl]-3-carboxylate] | > 10 | 43.1 | 3.1 |
| COC(=O)c1ccc(Cl)c(-c2ccnc(NC(=O)c3cc4ccc(NS(C)(=O)=O)cc4[nH]3)c2)c1 [Example 300, methyl 4-chloro-3-(2-(6-(methylsulfonamido)-1H-indole-2-carboxamido)pyridin-4-yl)benzoate] | > 10 | > 50 | 5.3 |
| CS(=O)(=O)Nc1ccc2cc(C(=O)Nc3cc(C#N)cc(-c4ccc(F)cc4C(F)(F)F)c3)[nH]c2c1 [Example 315, N-(5-cyano-4′-fluoro-2′-(trifluoromethyl)-[1,1′-biphenyl]-3-yl)-6-(methylsulfonamido)-1H-indole-2-carboxamide] | 3 | 25.9 | 2.6 |
| CN(c1ccc2cc(C(=O)Nc3cccc(-c4ccccc4C(F)(F)F)c3)n(C)c2c1)S(C)(=O)=O [Example 343, 1-methyl-6-(N-methylmethylsulfonamido)-N-(2′-(trifluoromethyl)-[1,1′-biphenyl]-3-yl)-1H-indole-2-carboxamide] | 2.8 | 5.8 | 1.8 |
| CN(c1ccc2cc(C(=O)Nc3cccc(-c4ccc(F)cc4F)c3)n(C)c2c1)S(C)(=O)=O [Example 345, N-(2′,4′-difluoro-[1,1′-biphenyl]-3-yl)-1-methyl-6-(N-methylmethylsulfonamido)-1H-indole-2-carboxamide] | 3.5 | 6.9 | 1.6 |
| COc1cc(C(F)(F)F)c(-c2cccc(NC(=O)c3cc4ccc(NS(C)(=O)=O)cc4[nH]3)c2)cc1C(N)=O [Example 377, N-(5′-carbamoyl-4′-methoxy-2′-(trifluoromethyl)-[1,1′-biphenyl]-3-yl)-6-(methylsulfonamido)-1H-indole-2-carboxamide] | > 10 | 15.2 | > 10 |
| CS(=O)(=O)Nc1ccc2cc(C(=O)Nc3cccc(-c4cc(C(N)=O)c(O)cc4C(F)(F)F)c3)[nH]c2c1 [Example 378, N-(5′-carbamoyl-4′-hydroxy-2′-(trifluoromethyl)-[1,1′-biphenyl]-3-yl)-6-(methylsulfonamido)-1H-indole-2-carboxamide] | > 10 | 39.9 | > 10 |
| CS(=O)(=O)Nc1ccc2cc(C(=O)Nc3cccc(-c4cc(C(N)=O)ccc4C(F)(F)F)c3)[nH]c2c1 [Example 379, N-(5′-carbamoyl-2′-(trifluoromethyl)-[1,1′-biphenyl]-3-yl)-6-(methylsulfonamido)-1H-indole-2-carboxamide] | > 10 | 30.1 | > 10 |
| CS(=O)(=O)Nc1ccc2cc(C(=O)Nc3cccc(-c4cc(C(N)=O)ccc4Cl)c3)[nH]c2c1 [Example 380, N-(5′-carbamoyl-2′-chloro-[1,1′-biphenyl]-3-yl)-6-(methylsulfonamido)-1H-indole-2-carboxamide] | > 10 | 42.6 | > 10 |
| CS(=O)(=O)Nc1ccc2cc(C(=O)Nc3cc(-c4cc(C(N)=O)ccc4Cl)ccn3)[nH]c2c1 [Example 381, N-(4-(5-carbamoyl-2-chlorophenyl)pyridin-2-yl)-6-(methylsulfonamido)-1H-indole-2-carboxamide] | > 10 | > 50 | > 10 |
| CS(=O)(=O)Nc1ccc2cc(C(=O)Nc3cccc(-c4ccc(N)cc4C(F)(F)F)c3)[nH]c2c1 [Example 385, N-(4′-amino-2′-(trifluoromethyl)-[1,1′-biphenyl]-3-yl)-6-(methylsulfonamido)-1H-indole-2-carboxamide] | > 10 | 26.3 | 4.3 |
| CNc1ccc(-c2cccc(NC(=O)c3cc4ccc(NS(C)(=O)=O)cc4[nH]3)c2)c(C(F)(F)F)c1 [Example 386, N-(4′-(methylamino)-2′-(trifluoromethyl)-[1,1′-biphenyl]-3-yl)-6-(methylsulfonamido)-1H-indole-2-carboxamide] | 8 | 7.6 | 3.4 |
| CS(=O)(=O)Nc1ccc2cc(C(=O)Nc3cccc(C(F)(F)c4ccncc4)c3)[nH]c2c1 [Example 388, N-(3-(difluoro(pyridin-4-yl)methyl)phenyl)-6-(methylsulfonamido)-1H-indole-2-carboxamide] | 8.2 | 9.8 | 3.8 |
| CS(=O)(=O)Nc1ccc2cc(C(=O)Nc3cccc(C(F)(F)c4ccccn4)c3)[nH]c2c1 [Example 389, N-(3-(difluoro(pyridin-2-yl)methyl)phenyl)-6-(methylsulfonamido)-1H-indole-2-carboxamide] | 9.1 | 20.3 | 5.8 |
| CC(C)COc1cc(NC(=O)c2cc3ccc(NS(C)(=O)=O)cc3[nH]2)cc(C(F)(F)c2cccc(C#N)c2)c1 [Example 392, N-(3-((3-cyanophenyl)difluoromethyl)-5-isobutoxyphenyl)-6-(methylsulfonamido)-1H-indole-2-carboxamide] | 8.3 | 9 | 1.8 |
| COc1ccc(S(=O)(=O)c2cccc(NC(=O)c3cc4ccc(NS(C)(=O)=O)cc4[nH]3)c2)cc1 [Example 394, N-(3-((4-methoxyphenyl)sulfonyl)phenyl)-6-(methylsulfonamido)-1H-indole-2-carboxamide] | > 10 | 20 | 3.3 |
